“Also recorded” adds a separate entry of the source. Read-outs that look alike come from different tables or passages of the source. Positions of bridges follow the written chain, without caps; N, C: chain ends. Residues, ends and D or L forms follow the SMILES beside them. No end group written: not given here. *: point of attachment. Acm = CC(=O)NC*
Columns and labels:
S. typhimurium LT2 = assay: survival of mice inoculated with live Salmonella typhimurium LT2; format: in vivo, mice (female, Balb/c); details: for rescue from lethal infection in words: oral and intraperitoneal routes; for survival rate: 100 μg
Description: Mice (female, Balb/c, 6-8 weeks) were administered a dose of live S. typhimurium LT2 (8×10^8/mouse) via the oral route. Without treatment, this dose of live organisms led to the death of all animals between day 3 and 4 (i.e. LD100 at day 3 or 4). Following challenge with Salmonella, peptide 20-44 (0-150 μg/mouse) was administered via the intravenous; oral, and intraperitoneal routes. […] At day 6 post infection, 100% of animals given a dose of 125 μg of peptide 20-44 intravenously survived. 80% of mice given 50, 100 and 150 μg of peptide survived through to day 5. Data shown in FIG. 10 strongly indicate that peptide 20-44 may also be given via the oral route since 80% survival rates were obtained with 100 μg of peptide. This is evidence that the peptide is not destroyed by the acid environment and enzymes of the stomach and indicates an alternative route of administration to the intravenous route discussed in FIG. 9. The third route of administration of peptide 20-44 was the intraperitoneal route. This is often the method of choice in a veterinary situation.

[1] = U.S. Pat. Nos. 5,607,916 and 5,458,874; cited from earlier work
S. typhimurium SH9178 = assay: in vitro bactericidal activity, S. typhimurium SH9178; format: cell-based, Salmonella typhimurium
Description: (§1) Methods used herein are those previously described in U.S. Pat. Nos. 5,607,916; 5,627,262; and 5,650,392.
(§2) Peptides 20-44, 20-44ser26 and 20-44ser42, were assayed for bactericidal activity using S. typhimurium SH9178 as the test organism. […] Peptide 20-44ser42 killed 97.8% of bacteria at 75 μM, and peptide 20-44ser26 killed 99.6% of bacteria at 75 μM. Importantly, at concentrations of only 12.5 μM, peptide 20-44ser26 killed 70.4% of organisms and peptide 20-44ser42 killed 66.6% of bacteria. We tested these peptides with the smooth, more virulent LT2 strain of S. typhimurium, (FIG. 3). […] Indeed, the two serine analogs, 20-44ser26 and 20-44ser42 were able to kill 73% and 65% of bacteria at 12.5 μM, the lowest concentration of peptide tested. These levels of mortality were very much greater than those obtained using peptide 20-44. Two other organisms, Staphylococcus aureus ATCC strain 25923 and Enterococcus faecalis (a clinical isolate), both of which are gram-positive organisms, were also tested against 20-44ser26 and 20-44ser42.

[2] = LPS binding in the in vitro limulus amebocyte lysate (LAL) assay; details: FIGS. 6-7
Description: We tested the ability of the peptide analogs of the present invention to bind LPS in the in vitro limulus amebocyte lysate (LAL) assay and compared them with the parent peptide, 20-44. […] Similarly, peptide 20-44ser42 was also capable of neutralizing the effect of monophosphoryl lipid A at concentrations greater than 500 μg/ml (FIG. 7).

[3] = intravenous infusion 3.0 mg/kg with E. coli LPS 250 μg/kg over 30 min; cited from earlier work
[4] = cited from earlier work
Salmonella typhimurium = details: cited from earlier work
Escherichia coli = details: cited from earlier work
Pseudomonas aeruginosa = details: cited from earlier work
Enterococcus faecalis = details: cited from earlier work
Staphylococcus aureus = details: cited from earlier work
[5] = system: LT2 strain of S. typhimurium; format: cell-based; details: 12.5 μM, lowest concentration tested, FIG. 3
Description: as §1, §2

[6] = format: physicochemical
Text: In addition to the Increased potency of peptide 20-44ser42 and 20-44ser26, these two peptides have technical advantages over the parent peptide 20-44. The two new analogs are easier to synthesize and purify because the internal disulfide bonding between the two cysteine residues can no longer occur.

[7] = 75 μM (200 μg/ml), highest concentration tested, FIG. 2

20-44ACM: sequence of 20-44 with both cysteines permanently protected with an ACM (boc-cys-acetamidomethyl) side group; control peptide (NQGRHFC(Acm)GGALIHARFVMTAASC(Acm)FQ; listed as Homo Sapiens) [Peptide 20-44ACM]
rescue from lethal infection in words (S. typhimurium LT2; intravenous): succumbed to infection very rapidly; also recorded: no activity | antibiotic / antimicrobial activity in words [1]: ineffective antibiotics

20-44ser26/42: homologous to peptide 20-44, serines substituted for cysteines at positions 26 and 42 (NQGRHFSGGALIHARFVMTAASSFQ; listed as Homo Sapiens)
antibiotic / antimicrobial activity in words [1]: ineffective antibiotics

CC[C@H](C)[C@@H]1NC(=O)[C@H](CC(C)C)NC(=O)[C@H](C)NC(=O)CNC(=O)CNC(=O)[C@@H](NC(=O)[C@H](Cc2ccccc2)NC(=O)[C@H](Cc2c[nH]cn2)NC(=O)[C@H](CCCNC(=N)N)NC(=O)CNC(=O)[C@H](CCC(N)=O)NC(=O)[C@@H](N)CC(N)=O)CSSC[C@@H](C(=O)N[C@@H](Cc2ccccc2)C(=O)N[C@@H](CCC(N)=O)C(=O)O)NC(=O)[C@H](CO)NC(=O)[C@H](C)NC(=O)[C@H](C)NC(=O)[C@H]([C@@H](C)O)NC(=O)[C@H](CCSC)NC(=O)[C@H](C(C)C)NC(=O)[C@H](Cc2ccccc2)NC(=O)[C@H](CCCNC(=N)N)NC(=O)[C@H](C)NC(=O)[C@H](Cc2c[nH]cn2)NC1=O [Peptide 20-44] (H-NQGRHFCGGALIHARFVMTAASCFQ-OH; disulfide 7-23; N-terminus and C-terminus assumed)
bactericidal activity in words (S. typhimurium SH9178; FIG. 2): significant antibiotic activity | binding of LPS / monophosphoryl lipid A in words [2]: bound LPS | mice survived (S. typhimurium LT2; 50, 100 and 150 μg (intravenous by context, FIG. 9), through to day 5): 80% | survival rate (S. typhimurium LT2; intraperitoneal, day 5 post infection, FIG. 11): 80% | survival rate (S. typhimurium LT2; intraperitoneal, day 6 post infection, FIG. 11): 60% | animals survived (S. typhimurium LT2; intravenous, 125 μg, day 6 post infection, FIG. 9): 100% | rescue from lethal infection in words (S. typhimurium LT2; intravenous): can rescue animals from lethal infection | survival rate (S. typhimurium LT2; oral, FIG. 10): 80% | effect on LPS-induced circulatory shock in words [3]: prevented LPS-induced hyperdynamic and hypodynamic circulatory shock | 7-day survival rate ([4]; 0.2 mg/kg intravenously after lethal dose of LPS): 30% | 7-day survival rate ([4]; 1.0 mg/kg intravenously after lethal dose of LPS): 50% | 7-day survival rate ([4]; 5.0 mg/kg intravenously after lethal dose of LPS): 80% | endotoxin-induced increase in circulating TNFα ([4]; 5.0 mg/kg, sensitized rats): significantly inhibited | in vitro bactericidal activity in words (Salmonella typhimurium): strong in vitro bactericidal activity | in vitro bactericidal activity in words (Escherichia coli): strong in vitro bactericidal activity | in vitro bactericidal activity in words (Pseudomonas aeruginosa): strong in vitro bactericidal activity | activity in words (Enterococcus faecalis): active | activity in words (Staphylococcus aureus): active

NQGRHFCGGALIHARFVMTAASSFQ [Peptide 20-44ser42]
bacteria killed (S. typhimurium SH9178; 12.5 μM): 66.6% | bacteria killed (S. typhimurium SH9178; [7]): 97.8% | bacteria killed [5]: 65% | solubility compared with the 20-44 peptide [6]: greater than the 20-44 peptide

NQGRHFSGGALIHARFVMTAASCFQ [Peptide 20-44ser26]
bacteria killed (S. typhimurium SH9178; 12.5 μM): 70.4% | bacteria killed (S. typhimurium SH9178; [7]): 99.6% | bacteria killed [5]: 73% | solubility compared with the 20-44 peptide [6]: greater than the 20-44 peptide

Source: patent publication US6730659B2, “Antimicrobial peptides and methods of use thereof” (The Board of Regents of the University of Oklahoma, priority 1999, dated 2004)
